From US4163839A, “Isocoformycin and a process for the production thereof” (priority 1977, dated 1979)
Like-named read-outs stand apart in the source and are kept apart here.

How the values were obtained:
[1] = target: T1, adenosine deaminase from calf intestine (Bos taurus, UniProt P56658); assay: Inhibition of adenosine deaminase from calf intestine (decrease in optical density); assay type: biochemical; conditions: at 25° C., read-out: ID50 (the source's name)
T1 construct: from tissue; host or cells: calf intestine
T1 sequence (P56658 1-363): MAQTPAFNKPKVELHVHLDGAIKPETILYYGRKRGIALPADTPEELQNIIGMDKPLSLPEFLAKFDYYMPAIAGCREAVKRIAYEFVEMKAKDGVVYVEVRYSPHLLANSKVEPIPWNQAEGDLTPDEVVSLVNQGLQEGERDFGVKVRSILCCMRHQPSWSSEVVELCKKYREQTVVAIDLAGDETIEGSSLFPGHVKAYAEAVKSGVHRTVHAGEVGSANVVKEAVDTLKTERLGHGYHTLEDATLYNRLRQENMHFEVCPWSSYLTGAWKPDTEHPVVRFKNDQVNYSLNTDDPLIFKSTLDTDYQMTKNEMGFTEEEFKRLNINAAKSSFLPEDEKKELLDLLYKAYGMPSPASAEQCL
Experimental: (§1) The novel compound of the present invention, isocoformycin (III), is useful because of its ability to inhibit strongly the deamination of formycin, adenine arabinoside and cordycepin by the adenosine deaminase present in mammals and birds. The inhibitory activities of isocoformycin on adenosine deaminase were measured using formycin and adenosine as the substrate. Three ml of a solution of adenosine or formycin in 0.05 M phosphate buffer (12 mg/ml, pH 7.5 and 6.5, respectively) was put in a quartz cell of 1 cm in length and 0.1 ml of a solution containing a known amount of isocoformycin in distilled water was added. The reaction was started by addition of 0.1 ml of enzyme solution (adenosine deaminase from calf intestine: 1 mg/ml of 0.025 M ammonium acetate or Takadiastase-Y: 4 mg/ml of distilled water) and the decreases for 2 minutes in optical densities at 265 nm in the case of adenosine or 295 nm in the case of formycin were recorded on Beckmann spectrophotometer equipped with the Gilford recorder. The concentration of the inhibitor for 50% inhibition (ID50) was calculated from the difference of the optical densities as shown in Table 1.

Takadiastase-Y = assay: Inhibition of Takadiastase-Y deamination (decrease in optical density); assay type: biochemical; conditions: at 45° C., 2 min, read-out: ID50 (the source's name)
Experimental: as §1

[2] = test system: mouse leukemia L-1210 cells; assay: Inhibition of multiplication of L-1210 cells in tissue culture (Lowry method); assay type: cell-based
From the text: The isocoformycin is also useful as a strong synergist of formcyin and adenine arabinoside for their antitumor activities. […] The inhibitory effect of formycin with or without isocoformycin on multiplication of the mouse leukemia L-1210 cells measured by the Lowry method [O. H. Lowry, N. J. Rosenbrough, A. L. Farr and R. J. Randall, J. Biol. Chem., 193, 265 (1951)] is directed in Table 2.

[3] = test system: mouse leukemia L-1210 cells; assay: Survival period of mice implanted with L-1210 cells; assay type: in vivo
Experimental: Each dose was injected i.p. 2 hrs. after implantation of 10^5 L-1210 cells once a day for 10 days.
"S. period" is the mean survival time in days.
"T/C" is the ratio of the mean survival time of the treated (with drug) animals versus the control's (no drug) and is expressed as a percentage.

Escherichia coli NIHJ = assay: Disc method on nutrient agar against Escherichia coli NIHJ; assay type: cell-based; conditions: for Diameter (inhibition diameter): disc 8 mm, medium containing formycin 50 μg/ml
[4] = formycin 50 μg/m i.p. once a day for 10 days, isocoformycin 0
[5] = isocoformycin 1.5 μg/m i.p. once a day for 10 days, without formycin
[6] = isocoformycin 1.5 μg/m with formycin 50 μg/m, i.p. once a day for 10 days
[7] = isocoformycin 3.1 μg/m i.p. once a day for 10 days, without formycin
[8] = isocoformycin 3.1 μg/m with formycin 50 μg/m, i.p. once a day for 10 days
[9] = isocoformycin 6.2 μg/m i.p. once a day for 10 days, without formycin
[10] = isocoformycin 6.2 μg/m with formycin 50 μg/m, i.p. once a day for 10 days
[11] = isocoformycin 12.5 μg/m i.p. once a day for 10 days, without formycin
[12] = isocoformycin 12.5 μg/m with formycin 50 μg/m, i.p. once a day for 10 days
[13] = isocoformycin 25 μg/m i.p. once a day for 10 days, without formycin
[14] = isocoformycin 25 μg/m with formycin 50 μg/m, i.p. once a day for 10 days
[15] = isocoformycin 50 μg/m i.p. once a day for 10 days, without formycin
[16] = isocoformycin 50 μg/m with formycin 50 μg/m, i.p. once a day for 10 days

`OCC1NC=Nc2c1ncn2[C@@H]1O[C@H](CO)[C@@H](O)[C@H]1O` (stereo partly drawn) [9-β-D-ribofuranosyl-6-hydroxymethyl-1,6-dihydropurine, reference compound] was tested, and the IC50 ([1]; substrate adenosine, pH 7.5) was 5800 nM, the IC50 ([1]; substrate formycin, pH 6.5) was 2600 nM and the IC50 (Takadiastase-Y; substrate adenosine, pH 7.5) was 280000 nM. For the same compound, the IC50 (Takadiastase-Y; substrate formycin, pH 6.5) was 200000 nM.
`Nc1ncnc2c([C@@H]3O[C@H](CO)[C@@H](O)[C@H]3O)[nH]nc12` [Formycin, formycin] was tested, and the inhibition at 0.2 µg/mL ([2]; Mus musculus, L1210) was 8%, the T/C % [3, 4] was 122% and the “s.period (mean survival time)” value [3, 4] was 10.5 days.
With `OC[C@H]1O[C@@H](n2cnc3c2N=CNC(O)C3)[C@H](O)[C@@H]1O` (stereo partly drawn) [Isocoformycin, 3-β-D-ribofuranosyl-3,6,7,8-tetrahydroimidazo[4,5-d][1,3]-diazepin-7-ol] the IC50 ([1]; substrate adenosine, pH 7.5) was 86 nM, the IC50 ([1]; substrate formycin, pH 6.5) was 35 nM and the IC50 (Takadiastase-Y; substrate adenosine, pH 7.5) was 1100 nM. It also gave an IC50 (Takadiastase-Y; substrate formycin, pH 6.5) of 2000 nM, an inhibition at 0.2 µg/mL ([2]; Mus musculus, L1210, isocoformycin 0.20 μg/ml, formycin 0.0, read-out: Inhibition (%)) of 0% and an inhibition at 0.5 µg/mL ([2]; Mus musculus, L1210, isocoformycin 0.50 μg/ml, formycin 0.0) of -4%. The “Inhibition (%)” value ([2]; isocoformycin 0.20 μg/ml with formycin 0.20 μg/ml) was 42%, the “Inhibition (%)” value ([2]; isocoformycin 0.50 μg/ml with formycin 0.20 μg/ml) was 55% and the “synergistic effect with formycin in the inhibition of cell multiplication” value ([2]; tissue cultures, with formycin) was “strong synergistic effect”. The “prolongation in the survival period” value ([3]; formycin combined with isocoformycin intraperitoneally) was “marked prolongation”, the T/C % [3, 5] was 93% and the “s.period (mean survival time)” value [3, 5] was 8.0 days. For the same compound, the T/C % [3, 6] was 145%, the “s.period (mean survival time)” value [3, 6] was 12.5 days and the T/C % [3, 7] was 105%. For the same compound, the “s.period (mean survival time)” value [3, 7] was 9.0 days, the T/C % [3, 8] was 163% and the “s.period (mean survival time)” value [3, 8] was 14.0 days. The T/C % [3, 9] was 99%, the “s.period (mean survival time)” value [3, 9] was 9.0 days and the T/C % [3, 10] was 140%. For the same compound, the “s.period (mean survival time)” value [3, 10] was 12.0 days, the T/C % [3, 11] was 116% and the “s.period (mean survival time)” value [3, 11] was 8.5 days. For the same compound, the T/C % [3, 12] was 163%, the “s.period (mean survival time)” value [3, 12] was 14.0 days and the T/C % [3, 13] was 93%. The “s.period (mean survival time)” value [3, 13] was 10.0 days, the T/C % [3, 14] was 174% and the “s.period (mean survival time)” value [3, 14] was 15.0 days. For the same compound, the T/C % [3, 15] was 93%, the “s.period (mean survival time)” value [3, 15] was 8.0 days and the T/C % [3, 16] was 174%. For the same compound, the “s.period (mean survival time)” value [3, 16] was 15.0 days, the “Diameter (inhibition diameter)” value (Escherichia coli NIHJ; isocoformycin 2.5 μg/ml) was 22.0 mm and the “Diameter (inhibition diameter)” value (Escherichia coli NIHJ; isocoformycin 10 μg/ml) was 25.0 mm. The “Diameter (inhibition diameter)” value (Escherichia coli NIHJ; isocoformycin 40 μg/ml) was 32.0 mm, the “Diameter (inhibition diameter)” value (Escherichia coli NIHJ; isocoformycin 200 μg/ml) was 36.0 mm and the “inhibitory activity against Escherichia coli NIHJ” value (Escherichia coli NIHJ; without formycin, isocoformycin 2 mg/ml) was “no inhibitory activity”.
